Experimental data as given in PMC9739882, “Main Determinants Affecting the Antiproliferative Activity of Stilbenes and Their Gut Microbiota Metabolites in Colon Cancer Cells: A Structure–Activity Relationship Study” (International Journal of Molecular Sciences, 2022).
Read-outs that look alike come from different tables or passages of the source.

Tests used:
Caco-2 cells [1] = test: MTT antiproliferative assay in Caco-2 cells; format: cell-based, human; details: for IC50: Homo sapiens, Caco-2, antiproliferative, MTT, mean ± SD (n = 3)
Description: (§1) The cell lines were obtained from the American Type Culture Collection (ATCC, Rockville, MD, USA) and cultured according to the ATCC. The human colon cancer cell lines Caco-2 (p53-null) and HT-29 (mutant p53), and non-tumorigenic colon cells CCD18-Co (wild-type p53) were grown as reported elsewhere. All tested compounds were solubilized in DMSO (<0.5% in the culture medium) and filter-sterilized (0.2 μm) before addition to the culture media. […] The effects of the compounds on Caco-2, HT-29, and CCD18-Co cell viability and proliferation were measured using the MTT reduction assay according to Giménez-Bastida et al.. Data are presented as the mean ± standard deviation (SD) of at least three independent experiments (n = 2 wells for each compound (dose and time point) per experiment). Then, IC50 antiproliferative values were determined using a four-parameter logistic regression fit. The calculations were performed using the online tool Quest Graph^TM IC50 Calculator (AAT Bioquest, Inc., Sunnyvale, CA, USA (https://www.aatbio.com/tools/ic50-calculator, accessed on 26 April 2022).

HT-29 cells [2] = test: MTT antiproliferative assay in HT-29 cells; format: cell-based, human; details: for IC50: Homo sapiens, HT-29, antiproliferative, MTT, mean ± SD (n = 3); for IC50 decrease from 48 to 72 h in HT-29: ratio of IC50 at 48 h vs 72 h (Figure S1)
Description: as §1

HT-29 cells [3] = test: Phase-II metabolism of compounds by HT-29 cells (UPLC-QTOF-MS of culture media); format: in vitro ADME, human; details: 50 μM, 24 h incubation
Description: (§2) Briefly, cell culture supernatants were collected at the end of the experiment and analyzed to measure the presence and concentration of the tested compounds. First, ACN (200 μL) was added per 200 μL of culture media, vortexed, and centrifuged at 16,435× g for 10 min. The supernatant was then concentrated in a Speedvac® concentrator (Savant SPD 121P), and then the residue was redissolved in 100 μL of MeOH and filtered (0.45 μm) before analysis by UPLC-QTOF-MS.
(§3) Briefly, the analyses were performed on an Agilent 1290 Infinity UPLC system coupled to a 6550 Accurate-Mass quadrupole-time-of-flight (QTOF) mass spectrometer (Agilent Technologies, Waldbronn, Germany) using an electrospray interface (Jet Stream Technology). Chrysin was used as an internal control of the ionization signal. Spectra were acquired in the m/z range from 100 to 1100, in negative polarity mode (m/z^−) and an acquisition rate of 1.5 spectra/s. Data were processed using the Mass Hunter Qualitative Analysis software (version B.06.00, Agilent). […]
(§4) A direct comparison with the available standards was used to identify the different metabolites. […] In addition, using extracted ion chromatograms (EICs) for area calculation and quantification reduced the possibility of misinterpreting overlapping peaks.

Caco-2 cells [4] = test: Phase-II metabolism of compounds by Caco-2 cells (UPLC-QTOF-MS of culture media); format: in vitro ADME, human; details: 50 μM, 72 h incubation
Description: as §2, §3, §4

Caco-2 cells [5] = test: Cell cycle distribution in Caco-2 cells (flow cytometry); format: cell-based, human; details: Caco-2, 72 h, compound at its IC50 concentration, p < 0.05 vs control
Description: (§5) The effects of all the compounds at their corresponding IC50 values for 3 days of treatment on cell cycle distribution in Caco-2 cells were measured as described previously. Data are shown as the mean ± SD of 3 independent experiments (2 wells per treatment) for each time point. In addition, the apoptosis induction exerted by all the compounds at their corresponding IC50 values for 3 days of treatment was examined using the Annexin V/PI detection kit (Molecular Probes, ThermoFisher Scientific, Madrid, Spain) as described previously. Briefly, 20,000 Caco-2 cells per sample were analyzed by flow cytometry (Coulter, EPICS XL-MCL, Miami, FL, USA), and staurosporine 5 μM was used as a standard inducer of apoptosis. Finally, the percentage of alive (negative in both annexin V-FITC and PI), early apoptotic (positive in annexin V-FITC and negative in PI), late apoptotic (positive in both annexin V-FITC and PI), and necrotic cells (only positive in PI) was calculated. Data are shown as the mean ± SD of 3 independent experiments (2 wells per treatment) for each time point.

Caco-2 cells [6] = test: Apoptosis induction in Caco-2 cells (Annexin V/PI, flow cytometry); format: cell-based, human; details: Caco-2, 72 h, compound at its IC50 concentration
Description: as §5

CCD18-Co cells = test: MTT antiproliferative assay in non-tumorigenic CCD18-Co cells; format: cell-based; details: Homo sapiens, CCD-18Co, 72 h, non-tumorigenic colon cells
Description: as §1

[7] = design: method as in PMID 35981285; details: cited from earlier work
[8] = 48 h, read-out: IC50 Caco-2 (48 h)
[9] = 72 h, read-out: IC50 Caco-2 (72 h)
[10] = 48 h, read-out: IC50 HT-29 (48 h)
[11] = 72 h, read-out: IC50 HT-29 (72 h)

Compound	IC50 (Caco-2 cells [1]; [8])	IC50 (Caco-2 cells [1]; [9])	IC50 (HT-29 cells [2]; [10])	IC50 (HT-29 cells [2]; [11])	IC50 decrease from 48 to 72 h in HT-29 (HT-29 cells [2])	IC50 decrease from 48 to 72 h in Caco-2 (Caco-2 cells [1]; ratio of IC50 at 48 h vs 72 h (Figure S1))	compound metabolized by HT-29 cells after 24 h (HT-29 cells [3])	compound metabolized by Caco-2 cells after 72 h (Caco-2 cells [4])	cell cycle phase increase vs control (Caco-2 cells [5])	late-phase apoptotic cells vs control cells (Caco-2 cells [6])	early-phase apoptotic cells vs control cells (Caco-2 cells [6])	IC50 (CCD18-Co cells)	concentration reached in the human colon [7]
Oc1ccc(/C=C/c2ccccc2)cc1 [4HST, 4-Hydroxy-trans-stilbene]	26.9 ± 8 µM	11.4 ± 10.1 µM	34 ± 8.1 µM	24.4 ± 11.3 µM	1.4 fold	5 fold	fully metabolized	hardly metabolized	significant increase (p < 0.05) was observed at both phases, S and G2/M	significant differences (p < 0.05)	–	–	–
Oc1cc(O)cc(/C=C/c2ccc(O)c(O)c2)c1 [PICE, 3,5,3′,4′-tetrahydroxy-trans-stilbene]	55.4 ± 10.8 µM	42 ± 9.8 µM	78.5 ± 5.7 µM	69.5 ± 4.6 µM	–	–	–	–	–	significant differences (p < 0.05)	statistically significant (p < 0.05)	–	–
Oc1ccc(/C=C/c2cc(O)cc(O)c2)cc1 [RSV, 3,5,4′-trihydroxy-trans-stilbene]	50.4 ± 3.4 µM	18.8 ± 1.6 µM	68.9 ± 22.6 µM	59.1 ± 9.9 µM	–	–	100%	14%	–	significant differences (p < 0.05)	–	–	–
Oc1ccc(CCc2cc(O)cc(O)c2)cc1 [DHRSV, Dihydroresveratrol]	55.4 ± 10.8 µM	33.8 ± 17.8 µM	> 100 µM	69 ± 9.3 µM	–	–	–	–	–	–	statistically significant (p < 0.05)	53 µM	> 100 µM
OCc1ccc(/C=C/c2ccccc2)cc1 [4STMe, trans-4-stilbenemethanol]	88.3 ± 14.6 µM	59.9 ± 23.1 µM	85.4 ± 16.5 µM	57.1 ± 18.9 µM	–	–	–	–	–	–	statistically significant (p < 0.05)	–	–
Oc1ccc(C=Cc2cccc(O)c2)cc1 [DHST, 3-(4-hydroxystyryl)phenol]	57.1 ± 10.2 µM	22.7 ± 6.4 µM	64.8 ± 15.6 µM	48.3 ± 17.8 µM	–	–	–	–	significant increase (p < 0.05) was observed at both phases, S and G2/M	significant differences (p < 0.05)	statistically significant (p < 0.05)	–	–
COc1cc(/C=C/c2ccc(O)cc2)cc(OC)c1 [PTERO, 3,5-dimethoxy, 4′-hydroxy-trans-stilbene]	67.6 ± 12.3 µM	43 ± 11.6 µM	45.1 ± 13.7 µM	37.9 ± 5.4 µM	–	–	–	–	significant increase (p < 0.05) was observed only at the G2/M phase	significant differences (p < 0.05)	statistically significant (p < 0.05)	–	–
Oc1cc(O)cc(/C=C/c2ccc(O)cc2O)c1 [Oxy-RSV, 3,5,2′,4′-tetrahydroxy-trans-stilbene]	74.7 ± 11.5 µM	55.4 ± 2.5 µM	96.7 ± 2.4 µM	83.4 ± 5.8 µM	–	–	–	–	–	significant differences (p < 0.05)	statistically significant (p < 0.05)	–	–
Oc1cc(O)cc(/C=C/c2ccccc2)c1 [PINO, 3,5-dihydroxy-trans-stilbene]	55.3 ± 12.7 µM	26.4 ± 7.1 µM	37.5 ± 14.3 µM	38.1 ± 8 µM	no change	–	–	–	–	–	statistically significant (p < 0.05)	–	–

Second part, led by results:

IC50 (Caco-2 cells [1]; [8])	IC50 (Caco-2 cells [1]; [9])	IC50 (HT-29 cells [2]; [10])	IC50 (HT-29 cells [2]; [11])	IC50 decrease from 48 to 72 h in HT-29 (HT-29 cells [2])	Compound	IC50 decrease from 48 to 72 h in Caco-2 (Caco-2 cells [1]; ratio of IC50 at 48 h vs 72 h (Figure S1))	compound metabolized by HT-29 cells after 24 h (HT-29 cells [3])	compound metabolized by Caco-2 cells after 72 h (Caco-2 cells [4])	cell cycle phase increase vs control (Caco-2 cells [5])	late-phase apoptotic cells vs control cells (Caco-2 cells [6])	early-phase apoptotic cells vs control cells (Caco-2 cells [6])	IC50 (CCD18-Co cells)	concentration reached in the human colon [7]
> 100 µM	56.9 ± 8 µM	> 100 µM	96.7 ± 6.7 µM	–	Oc1ccc(CCc2ccccc2)cc1 [4HDB, 4-(2-phenylethyl)phenol]	–	–	–	–	–	–	–	–
54 ± 3.1 µM	73.9 ± 13.8 µM	> 100 µM	82.4 ± 12.1 µM	–	Oc1cc(O)cc(CCc2ccccc2)c1 [DHP, 3-hydroxy-(5-phenethyl)phenol]	–	–	–	–	–	statistically significant (p < 0.05)	–	–
> 100 µM	42.9 ± 4.1 µM	> 100 µM	81.7 ± 15.5 µM	–	Oc1cccc(CCc2ccccc2)c1 [3HDB, 3-(2-phenylethyl)phenol]	–	–	–	–	–	statistically significant (p < 0.05)	–	–
84.5 ± 11.7 µM	50.5 ± 23.1 µM	> 100 µM	53.2 ± 6.8 µM	–	Oc1ccc(CCc2cccc(O)c2)cc1 [LUNU, 3-(4-hydroxyphenethyl)phenol]	–	–	–	–	–	–	67 µM	> 100 µM
